{"source": "patent US7470669B2", "about": "“Isolated polypeptide comprising a leptin fragment” (Serono Genetics Institute, S.A., priority 1999, dated 2008)", "key": {"LSR [1]": {"test_system": "LSR", "experiment": "125I-leptin degradation in PLC cells", "assay_type": "cell-based, human", "settings": "50 μM"}, "LSR [2]": {"test_system": "LSR", "experiment": "LSR activity (oleate-induced 125I-LDL binding, uptake, degradation) in primary cultures of rat hepatocytes", "assay_type": "cell-based", "settings": "rat hepatocytes; 50 μM", "protocol": "FIGS. 6A, 6B, and 6C show the effect of leptin on ^125I-LDL and ^125I-chylomicron binding to LSR in primary cultures of rat hepatocytes. For FIG. 6A, primary cultures of rat hepatocytes (48 hours after plating) were incubated at 37° C. for 30 min in the absence (□) or presence (▪) of 50 ng/mL leptin in Buffer A, followed by a 20 min incubation at 37° C. with 0.5 mM oleate. The cells were then washed with ice-cold PBS, precooled for 10 min, and then incubated for 1 h at 4° C. with increasing concentrations of ^125I-LDL in Buffer A. Cells were washed, were lysed in 0.1 N NaOH and were counted for radioactivity. Results are shown as the mean of duplicate determinations. For FIG. 6B, primary cultures of rat hepatocytes were incubated at 37° C. for 30 min with or without 20 ng/mL leptin followed by incubation at 37° C. for 4 h with 6 μg protein/mL ^125I-chylomicrons in the absence or presence of 0.5 mM oleate in Buffer A. The cells were then washed and the ^125I-chylomicrons bound to the cell surface were released into the media by incubation with 10 mM suramin. The media was recovered and the radioactivity was measured. Results are shown as the mean±SD of six determinations. Fir FIG. 6C, after incubation at 37° C. for 30 min with 50 ng/mL leptin, the cells were incubated at room temperature for 30 min with 200 μg IgG/mL antibodies directed against rat LSR protein or irrelevant IgG. The amount of ^125I-chylomicrons bound was determined, and results are shown as means±SD of triplicate (irrelevant) or quadruplicate (anti-LSR) determinations.\n(§1) FIGS. 7A and 7B show a comparison of the effect of human and mouse leptin on LSR activity in rat hepatocytes and on postprandial increase in plasma TG in db^Pas/db^Pas mice. For FIG. 7A, primary cultures of rat hepatocytes were incubated 30 min at 37° C. without (open bar) or with 10 ng/mL recombinant human (solid bar) or mouse (hatched bar) leptin in Buffer A. Oleate (0.5 mM) and ^125I-LDL (20 μg/mL) were added and the cells were incubated 2 h at 37° C. The media were removed and were analyzed for TCA-soluble degradation products. The mean of duplicate determinations is shown. For FIG. 7B, db^Pas/db^Pas mice were given a test meal as previously described, followed immediately by injection i.p. of saline (open bar, n=4), human leptin (1 μg/animal; solid bar, n=3) or mouse leptin (0.25 μg/animal; hatched bar; n=3). The data represent the difference in TG concentrations measured at t=0 and the average of the concentrations at 3 and 4 hours. Results are shown as mean±SEM.\nCells were incubated 30 min at 37° C. with increasing concentrations of mouse (▪) or human (●) leptin peptide. Following this, 0.5 mM oleate and 20 μg/mL ^125I-LDL were added and the cells were further incubated for 2 h at 37° C. The cells were washed, and the amount of oleate-induced ^125I-LDL bound and degraded was measured as described previously (Bihain, B. E., and Yen, F. T. (1992). Free fatty acids activate a high-affinity saturable pathway for degradation of low-density lipoproteins in fibroblasts from a subject homozygous for familial hypercholesterolemia. Biochemistry 31, 4628-4636).\nFIGS. 11A and 11B show the effect of mouse leptin (FIG. 11A) or leptin peptide (FIG. 11B) on postprandial plasma TG response in ob/ob mice. […] Postprandial triglyceridemia was measured as described previously. Each point represents the mean±SEM (A: saline, n=8, leptin, n=7; leptin peptide: saline, n=8, leptin, n=8). […] Primary cultures of rat hepatocytes were incubated 30 min at 37° C. with increasing concentrations of mouse leptin peptide. Oleate (0.5 mM) and ^125I-LDL (20 μg/mL) were added and the cells were incubated 2 h at 37° C. After washing, the amount of 125I-LDL bound to the cell surface was measured as described in the Examples section herein. […]"}, "LSR [3]": {"test_system": "LSR", "experiment": "LSR activity (oleate-induced 125I-LDL binding, uptake, degradation) in PLC cells", "assay_type": "cell-based, human", "protocol": "FIGS. 5A, 5B, 5C, and 5D show the stimulatory effect of leptin on LSR activity in PLC and suppression of this effect by 81B antibody. For FIGS. 5A, 5B, and 5C, cultured PLC cells were incubated at 37° C. for 30 min with increasing concentrations of human recombinant leptin in Buffer A. After this, 0.5 mM oleate and 20 μg/mL ^125I-LDL were added, and cells were further incubated at 37° C. for 2 h. Cells were washed, and the amount of oleate-induced ^125I-LDL bound (5A), internalized (5B) and degraded (5C) were measured. For FIG. 5D, PLC cells were incubated at room temperature for 30 min with 200 μg/mL anti-LSR peptide 81B or 170 antibody, followed by incubation at 37° C. for 30 min without (open bar) or with (hatched bar) 10 ng/mL human leptin. Oleate (0.5 mM) and ^125I-LDL (20 μg/mL) were added, and the monolayers were left at 37° C. for 3 h. After washing, the amount of ^125I-LDL binding was determined, and is shown here as the mean±SD of triplicate determinations.\nFIGS. 8A and 8B show the effect of mouse or human leptin on LSR activity in primary cultures of rat hepatocytes or a human liver cell line (PLC). Primary cultured rat hepatocytes were obtained commercially (In Vitro Tech). The PLC cell line was obtained from ATCC repository and maintained in culture. Rat hepatocytes 72 h after plating (8A) or confluent monolayers of PLC (8B) were incubated 30 min at 37° C. with 0 (closed bar) or 10 ng/mL of human (open bar) or mouse (hatched bar) recombinant leptin. Following this, 0.5 mM oleate and 20 μg/mL ^125I-LDL were added and the cells were further incubated for 2 h at 37° C. […] The cells were washed, and the amount of oleate-induced ^125I-LDL bound and degraded was measured as described previously (Bihain, B. E., and Yen, F. T. (1992). Free fatty acids activate a high-affinity saturable pathway for degradation of low density lipoproteins infibroblasts from a subject homozygous for familial hypercholesterolemia. Biochemistry 31, 4628-4636.\nFIGS. 35A and 35B show graphs of LSR activity and mRNA expression measured in PLC cells preincubated 24 h with leptin. In FIG. 35A, PLC monolayers were incubated 24 h at 37° C. with (o) or without (n) 200 ng/mL human recombinant leptin. After washing with PBS, cells were incubated 30 min at 37° C. with increasing concentrations of human leptin, followed by a 2 h incubation at 37° C. with 0.8 mM oleate and 20 μg/mL ^125I-LDL. Cells were washed, and the amount of oleate-induced ^125I-LDL binding was measured as described previously. Results are shown as the mean of triplicate determinations. In FIG. 35B, PLC monolayers were incubated 24 h at 37° C. with 0, 200, or 400 ng/mL human recombinant leptin. After washing with PBS, the cells were harvested. Total RNA was prepared from the cell pellets, and Northerns were performed to detect LSR mRNA, using GAPDH probe as loading control as described previously. Northern blots were scanned on the Phosphorimager (Molecular Dynamics, Sunnyvale, Calif.). Densitometric analysis of the images was performed using the software ImageQuant. Results are shown as the amount of LSR signal relative to that of GAPDH (mean±SD, n=3/condition). […]"}, "db^Pas/db^Pas mice": {"test_system": "db^Pas/db^Pas mice", "experiment": "Postprandial plasma TG response after high-fat test meal in db^Pas/db^Pas mice", "assay_type": "in vivo, mouse", "settings": "1 μg/animal i.p.", "protocol": "FIGS. 1A and 1B show the effect of leptin on postprandial plasma TG response in db/db and db^Pas/db^Pas mice. Overnight-fasted db/db (A), db^Pas/db^Pas (B) mice were gavage-fed a high-fat test meal and immediately injected intravenously (db/db) or intraperitoneally (db^Pas/db^Pas) with saline (open symbols) or 50 μg mouse recombinant leptin (closed symbols). At the indicated times, blood was collected from the tail (A) or orbital (B) vein, plasma was separated by centrifugation, and plasma TG concentrations were determined using an enzymatic kit. Each point represents the mean±SEM (db/db: saline, n=4, leptin, n=3; db^Pas/db^Pas: saline, n=6, leptin, n=7). The average plasma lipid response in 10 control C57BL6 mice is shown as a dotted line in both A and B. In a separate experiment, shown as an inset for each strain of mice, overnight fasted db/db (●) or db^Pas/db^Pas (▪) mice were gavage-fed the test meal and immediately injected intravenously with increasing concentrations of leptin. The plasma lipid response was then measured as in A and B. The area under the response curve (AUC) was then calculated using a triangulation method on Microsoft Excel between 0 and 4 hr (mg TG·h/mL). Values are presented as % of control value (test meal alone obtained in A or B). Each point represents the mean of at least 3 mice.\nas §1\nMice that were fasted for 2-3 hours were gavage-fed 300 μL of a test meal consisting of 60% fat (37% saturated, 27% mono-, and 36% polyunsaturated fatty acids), 20% protein and 20% carbohydrate, and providing 56 kcal of energy/kg (1.5 g butter, 1.5 g sunflower oil, 2.5 g nonfat dry milk, 2.5 g sucrose and 3 ml water). […] TG concentrations were determined using a commercially available enzymatic kit with controls included in each assay (Precinorm L, Roche-Boehringer Mannheim; Lyotrol N, BioMérieux)."}}}
{"molecule": "CCN(CC)CCCC(C)Nc1ccnc2cc(Cl)ccc12", "note": "(stereo not shown) [Chloroquine]", "values": [{"measurement": "increase of the amount of cell-associated 125I-leptin", "setting": "LSR [1]", "value": "2-4 fold"}, {"measurement": "inhibition of 125I-leptin degradation", "setting": "LSR [1]", "value": "more than 60%"}]}
{"molecule": "C[C@@H]1C[C@@H]([C@H](O)CC2CC(=O)NC(=O)C2)C(=O)[C@@H](C)C1", "note": "[cycloheximide, reference compound]", "values": [{"measurement": "effect on the stimulatory effect of leptin on LSR activity", "setting": "LSR [2]", "value": "did not suppress the stimulatory effect of leptin"}]}
{"molecule": "C=C1[C@@H](C)[C@H]2[C@H](Cc3ccccc3)NC(=O)[C@]23OC(=O)/C=C/[C@H](O)CCC[C@@H](C)C/C=C/[C@H]3[C@@H]1O", "note": "[cytochalasin B, reference compound]", "values": [{"measurement": "reduction of leptin stimulation of LSR activity", "setting": "LSR [2]", "value": "more than 80%"}]}
{"molecule": "human leptin: commercial preparation of recombinant human leptin", "values": [{"measurement": "stimulation of LSR activity in human PLC cells", "setting": "LSR [3]; 10 ng/mL recombinant leptin", "value": "more efficient"}, {"measurement": "LSR activity after long-term exposure", "setting": "LSR [3]; human liver cells (PLC) preincubated 24 h with 200 ng/mL", "value": "markedly reduced LSR activity"}, {"measurement": "postprandial plasma TG response", "setting": "db^Pas/db^Pas mice", "value": "slightly reduced"}]}
